Consider six compounds from patent publication US7632811B2, “Analogs of parathyroid hormone” (Societe de Conseils de Recherches et D'Applications …, priority 1995, dated 2009).

Non-standard residues stand in square brackets, D forms with d. Residues, ends and D or L forms follow the SMILES beside them. Cha = N[C@@H](CC1CCCCC1)C(=O)O; Ac6c = NC1(C(=O)O)CCCCC1; Nle = CCCC[C@H](N)C(=O)O; Aib = CC(C)(N)C(=O)O

One test deals with T1, PTH receptor present on SaOS-2 (human osteosarcoma cells) (Homo sapiens, UniProt Q03431).
T1 construct: host or cells: SaOS-2 human osteosarcoma cells (intact, confluent monolayers)
T1 sequence (Q03431 27-593): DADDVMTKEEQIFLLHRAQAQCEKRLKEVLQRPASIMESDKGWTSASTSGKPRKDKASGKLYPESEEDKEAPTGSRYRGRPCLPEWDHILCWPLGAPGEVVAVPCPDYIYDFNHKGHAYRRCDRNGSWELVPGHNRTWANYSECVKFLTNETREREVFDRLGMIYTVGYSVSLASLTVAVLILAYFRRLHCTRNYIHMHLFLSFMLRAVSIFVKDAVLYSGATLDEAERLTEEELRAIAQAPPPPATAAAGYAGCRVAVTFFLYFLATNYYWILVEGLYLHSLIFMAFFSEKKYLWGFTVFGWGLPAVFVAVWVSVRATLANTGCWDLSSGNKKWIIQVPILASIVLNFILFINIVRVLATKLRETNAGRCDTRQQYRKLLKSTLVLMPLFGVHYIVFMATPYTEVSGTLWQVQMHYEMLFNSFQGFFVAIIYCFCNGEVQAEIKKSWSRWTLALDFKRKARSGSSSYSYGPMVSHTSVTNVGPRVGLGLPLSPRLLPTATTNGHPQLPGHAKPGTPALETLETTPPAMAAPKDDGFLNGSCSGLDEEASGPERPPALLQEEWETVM
The experiment in a line: Binding to PTH receptor on SaOS-2 cells (competition with mono-125I-[Nle8,18,Tyr34(3-125I)]bPTH(1-34)NH2). The settings on record: Table I, 2 hrs at room temperature, read-out: Kd (half maximal inhibition of binding of mono-125I-[Nle8,18, Tyr34(3-125I)]bPTH(1-34)NH2). The protocol: A. Binding to PTH Receptor
The peptides of the invention were tested for their ability to bind to the PTH receptor present on SaOS-2 (human osteosarcoma cells). SaOS-2 cells (American Type Culture Collection, Rockville, Md.; ATCC #HTB 85) were maintained in RPMI 1640 medium (Sigma, St. Louis, Mo.) supplemented with 10% fetal bovine serum (FBS) and 2 mM glutamine at 37EC in a humidified atmosphere of 5% CO2 in air. The medium was changed every three or four days, and the cells were subcultured every week by trypsinization.
SaOS-2 cells were maintained for four days until they had reached confluence. The medium was replaced with 5% FBS in RPMI 1640 medium and incubated for 2 hrs at room temperature with 10×10^4 cpm mono-^125I-[Nle^8,18, Tyr^34(3-^125I)]bPTH(1-34)NH2 in the presence of a competing peptides of the invention at various concentrations between 10^−11 M to 10^−4 M. The cells were washed four times with ice-cold PBS and lysed with 0.1 M NaOH, and the radioactivity associated with the cells was counted in a scintillation counter. Synthesis of mono-^125I-[Nle^8,18, Tyr^34(3-^125I)]bPTH(1-34)NH2 was carried out as described in Goldman, M. E., et al., Endocrinol., 123:1468 (1988).
The binding assay was conducted with various peptides of the invention, and the Kd value (half maximal inhibition of binding of mono-^125I-[Nle^8,18, Tyr^34(3-^125I)]bPTH(1-34)NH2) for each peptide was calculated.
As usually defined, the Kd is the equilibrium constant for the complex coming apart. For the compound `CC[C@H](C)[C@H](NC(=O)[C@H](CCC(=O)O)NC(=O)[C@H](CO)NC(=O)[C@@H](NC(=O)[C@@H](N)CO)C(C)C)C(=O)N[C@@H](CCC(N)=O)C(=O)N[C@@H](CC1CCCCC1)C(=O)N[C@@H](CCSC)C(=O)N[C@@H](Cc1c[nH]cn1)C(=O)N[C@@H](CC(N)=O)C(=O)N[C@@H](CC(C)C)C(=O)NCC(=O)N[C@@H](CCCCN)C(=O)N[C@@H](Cc1c[nH]cn1)C(=O)N[C@@H](CC(C)C)C(=O)N[C@@H](CC(N)=O)C(=O)N[C@@H](CO)C(=O)N[C@@H](CCSC)C(=O)N[C@@H](CCC(=O)O)C(=O)N[C@@H](CCCNC(=N)N)C(=O)N[C@H](C(=O)N[C@@H](CCC(=O)O)C(=O)N[C@@H](Cc1c[nH]c2ccccc12)C(=O)N[C@@H](CC(C)C)C(=O)N[C@@H](CCCNC(=N)N)C(=O)N[C@@H](CCCCN)C(=O)N[C@@H](CCCCN)C(=O)N[C@@H](CC(C)C)C(=O)N[C@@H](CCC(N)=O)C(=O)N[C@@H](CC(=O)O)C(=O)N[C@H](C(=O)N[C@@H](Cc1c[nH]cn1)C(=O)N[C@@H](CC(N)=O)C(=O)N[C@@H](Cc1ccccc1)C(N)=O)C(C)C)C(C)C` [[Cha^7]hPTH(1-34)NH2] (H-SVSEIQ[Cha]MHNLGKHLNSMERVEWLRKKLQDVHNF-NH2), the Kd came to 20 nM.
On to `CCCC[C@H](NC(=O)[C@H](CC(=O)O)NC(=O)[C@H](CCC(N)=O)NC(=O)[C@H](CC(C)C)NC(=O)[C@H](CCCCN)NC(=O)[C@H](CCCCN)NC(=O)[C@H](CCCNC(=N)N)NC(=O)[C@H](CC(C)C)NC(=O)[C@H](Cc1c[nH]c2ccccc12)NC(=O)[C@H](CCC(=O)O)NC(=O)[C@@H](NC(=O)[C@H](CCCNC(=N)N)NC(=O)[C@H](CCC(=O)O)NC(=O)[C@H](CCSC)NC(=O)[C@H](CO)NC(=O)[C@H](CC(N)=O)NC(=O)[C@H](CC(C)C)NC(=O)[C@H](Cc1c[nH]cn1)NC(=O)[C@H](CCCCN)NC(=O)CNC(=O)[C@H](CC(C)C)NC(=O)[C@H](CC(N)=O)NC(=O)[C@H](Cc1c[nH]cn1)NC(=O)[C@H](CCSC)NC(=O)[C@H](CC(C)C)NC(=O)[C@H](CCC(N)=O)NC(=O)[C@@H](NC(=O)[C@H](CCC(=O)O)NC(=O)[C@H](CO)NC(=O)[C@@H](NC(=O)[C@@H](N)CO)C(C)C)[C@@H](C)CC)C(C)C)C(=O)N[C@@H](Cc1c[nH]cn1)C(=O)N[C@@H](CC(N)=O)C(=O)N[C@@H](Cc1ccccc1)C(N)=O` [[Nle^31]hPTH(1-34)NH2] (H-SVSEIQLMHNLGKHLNSMERVEWLRKKLQD[Nle]HNF-NH2), for which the Kd came to 4 nM.
Turning to `CC[C@H](C)[C@H](NC(=O)[C@H](CCC(=O)O)NC(=O)[C@H](CO)NC(=O)[C@@H](NC(=O)[C@@H](N)CO)C(C)C)C(=O)N[C@@H](CCC(N)=O)C(=O)N[C@@H](CC(C)C)C(=O)N[C@@H](CCSC)C(=O)N[C@@H](Cc1c[nH]cn1)C(=O)N[C@@H](CC(N)=O)C(=O)N[C@@H](CC(C)C)C(=O)NCC(=O)N[C@@H](CCCCN)C(=O)N[C@@H](Cc1c[nH]cn1)C(=O)N[C@@H](CC(C)C)C(=O)N[C@@H](CC(N)=O)C(=O)N[C@@H](CO)C(=O)N[C@@H](CCSC)C(=O)N[C@@H](CCC(=O)O)C(=O)N[C@@H](CCCNC(=N)N)C(=O)N[C@H](C(=O)N[C@@H](CCC(=O)O)C(=O)N[C@@H](Cc1c[nH]c2ccccc12)C(=O)N[C@@H](CC(C)C)C(=O)N[C@@H](CCCNC(=N)N)C(=O)N[C@@H](CCCCN)C(=O)N[C@@H](CCCCN)C(=O)N[C@@H](CC(C)C)C(=O)N[C@@H](CCC(N)=O)C(=O)N[C@@H](CC(=O)O)C(=O)N[C@@H](CC1CCCCC1)C(=O)N[C@@H](Cc1c[nH]cn1)C(=O)N[C@@H](CC(N)=O)C(=O)N[C@@H](Cc1ccccc1)C(N)=O)C(C)C` [[Cha^31]hPTH(1-34)NH2] (H-SVSEIQLMHNLGKHLNSMERVEWLRKKLQD[Cha]HNF-NH2), the Kd is 30 nM.

Still in this test, the particulars now being: Table II, 2 hrs at room temperature, read-out: Kd (half maximal inhibition of binding of mono-125I-[Nle8,18, Tyr34(3-125I)]bPTH(1-34)NH2).
For `CC[C@H](C)[C@H](NC(=O)[C@H](CO)NC(=O)[C@H](CCCCN)NC(=O)CNC(=O)[C@H](CCCCN)NC(=O)[C@H](CC(=O)O)NC(=O)[C@H](Cc1c[nH]cn1)NC(=O)[C@H](CC(C)C)NC(=O)[C@H](CC(C)C)NC(=O)[C@H](CCC(N)=O)NC(=O)[C@H](Cc1c[nH]cn1)NC(=O)[C@H](CCC(=O)O)NC(=O)[C@H](CO)NC(=O)[C@@H](NC(=O)[C@H](C)N)C(C)C)C(=O)N[C@@H](CCC(N)=O)C(=O)N[C@@H](CC(=O)O)C(=O)N[C@@H](CC(C)C)C(=O)N[C@@H](CCCNC(=N)N)C(=O)N[C@@H](CCCNC(=N)N)C(=O)N[C@@H](CCCNC(=N)N)C(=O)N[C@@H](CC1CCCCC1)C(=O)N[C@@H](CC(C)C)C(=O)N[C@@H](CC(C)C)C(=O)N[C@@H](CCC(=O)O)C(=O)N[C@@H](CCCCN)C(=O)NC1(C(=O)N[C@@H](CC(C)C)C(=O)NC(C)(C)C(=O)N[C@@H](CCCCN)C(=O)N[C@@H](CC(C)C)C(=O)N[C@@H](Cc2c[nH]cn2)C(=O)N[C@H](C(=O)N[C@@H](C)C(N)=O)[C@@H](C)O)CCCCC1` [[Cha^22, Leu^23,28,31, Glu^25, Lys^26,30, Ahc^27, Aib^29]hPTHrP(1-34)NH2] (H-AVSEHQLLHDKGKSIQDLRRR[Cha]LLEK[Ac6c]L[Aib]KLHTA-NH2), the Kd was 60 nM.
On to `CC[C@H](C)[C@H](NC(=O)[C@H](CO)NC(=O)[C@H](CCCCN)NC(=O)CNC(=O)[C@H](CCCCN)NC(=O)[C@H](CC(=O)O)NC(=O)[C@H](Cc1c[nH]cn1)NC(=O)[C@H](CC(C)C)NC(=O)[C@H](CC(C)C)NC(=O)[C@H](CCC(N)=O)NC(=O)[C@H](Cc1c[nH]cn1)NC(=O)[C@H](CCC(=O)O)NC(=O)[C@H](CO)NC(=O)[C@@H](NC(=O)[C@H](C)N)C(C)C)C(=O)N[C@@H](CCC(N)=O)C(=O)N[C@@H](CC(=O)O)C(=O)N[C@@H](CC(C)C)C(=O)N[C@@H](CCCNC(=N)N)C(=O)N[C@@H](CCCNC(=N)N)C(=O)N[C@@H](CCCNC(=N)N)C(=O)N[C@@H](CCC(=O)O)C(=O)N[C@@H](CC(C)C)C(=O)N[C@@H](CC(C)C)C(=O)N[C@@H](CCC(=O)O)C(=O)N[C@@H](CCCCN)C(=O)N[C@@H](CC(C)C)C(=O)N[C@@H](CC(C)C)C(=O)NC(C)(C)C(=O)N[C@@H](CCCCN)C(=O)NC1(C(=O)N[C@@H](Cc2c[nH]cn2)C(=O)N[C@H](C(=O)N[C@@H](C)C(N)=O)[C@@H](C)O)CCCCC1` [[Glu^22,25, Leu^23,28, Lys^26,30, Aib^29, Ahc^31]hPTHrP(1-34)NH2] (H-AVSEHQLLHDKGKSIQDLRRRELLEKLL[Aib]K[Ac6c]HTA-NH2), for which the Kd is 200 nM.
As for `CC[C@H](C)[C@H](NC(=O)[C@H](CO)NC(=O)[C@H](CCCCN)NC(=O)CNC(=O)[C@H](CCCCN)NC(=O)[C@H](CC(=O)O)NC(=O)[C@H](Cc1c[nH]cn1)NC(=O)[C@H](CC(C)C)NC(=O)[C@H](CC(C)C)NC(=O)[C@H](CCC(N)=O)NC(=O)[C@H](Cc1c[nH]cn1)NC(=O)[C@H](CCC(=O)O)NC(=O)[C@H](CO)NC(=O)[C@@H](NC(=O)[C@H](C)N)C(C)C)C(=O)N[C@@H](CCC(N)=O)C(=O)N[C@@H](CC(=O)O)C(=O)N[C@@H](CC(C)C)C(=O)N[C@@H](CCCNC(=N)N)C(=O)N[C@@H](CCCNC(=N)N)C(=O)N[C@@H](CCCNC(=N)N)C(=O)N[C@@H](CCC(=O)O)C(=O)N[C@@H](CC(C)C)C(=O)N[C@@H](CC(C)C)C(=O)N[C@@H](CCC(=O)O)C(=O)N[C@@H](CCCCN)C(=O)N[C@@H](CC(C)C)C(=O)N[C@@H](CC(C)C)C(=O)N[C@@H](CCC(=O)O)C(=O)NC1(C(=O)N[C@@H](CC(C)C)C(=O)N[C@@H](Cc2c[nH]cn2)C(=O)N[C@H](C(=O)N[C@@H](C)C(N)=O)[C@@H](C)O)CCCCC1` [[Glu^22,25,29, Leu^23,28,31, Lys^26, Ahc^30]hPTHrP(1-34)NH2] (H-AVSEHQLLHDKGKSIQDLRRRELLEKLLE[Ac6c]LHTA-NH2; N-terminus assumed), the Kd came out at 230 nM.
